Assay results taken from ChEMBL document CHEMBL2429827, “Pharmacological evaluation of some novel synthesized compounds derived from spiro(cyclohexane-1,2-thiazolidines)” (2013).
Converted amounts (≈) assume the structure as drawn. The source made the active and inactive calls. The calls are words filed in the database; no cut-off is given here.

Tests used:
Aspergillus niger [1] = experiment: Antifungal activity against Aspergillus niger after 24 hrs by agar diffusion method; format: functional, organism-based
Escherichia coli [2] = experiment: Antibacterial activity against Escherichia coli NRRL B-210 after 24 hrs by agar diffusion method; format: functional, organism-based
Bacillus subtilis [3] = experiment: Antibacterial activity against Bacillus subtilis NRRL B-543 after 24 hrs by agar diffusion method; format: functional, organism-based
Candida albicans [4] = experiment: Antifungal activity against Candida albicans NRRL Y-477 after 24 hrs by agar diffusion method; format: functional, organism-based
Staphylococcus aureus [5] = experiment: Antibacterial activity against Staphylococcus aureus NRRL B-313 after 24 hrs by agar diffusion method; format: functional, organism-based
[6] = system: Radical scavenging activity; experiment: Antioxidant activity assessed as DPPH radical scavenging activity at 50 ug/ml after 30 mins by spectroscopic analysis; format: functional
MCF7 = experiment: Cytotoxicity against human MCF7 cells at 100 ug/ml after 72 hrs by SRB assay; format: functional
[7] = system: Radical scavenging activity; experiment: Antioxidant activity assessed as DPPH radical scavenging activity at 100 ug/ml after 30 mins by spectroscopic analysis; format: functional
HepG2 = experiment: Cytotoxicity against human HepG2 cells at 100 ug/ml after 72 hrs by SRB assay; format: functional
Bacillus subtilis [8] = experiment: Bacteriostatic activity against Bacillus subtilis NRRL B-543 after 24 hrs by two-fold serial dilution technique; format: functional; conditions: NRRL B-543, 24 h
Aspergillus niger [9] = experiment: Antifungal activity against Aspergillus niger after 48 hrs by two-fold serial dilution technique; format: functional
Candida albicans [10] = experiment: Antifungal activity against Candida albicans NRRL Y-477 after 48 hrs by two-fold serial dilution technique; format: functional; conditions: NRRL Y-477, 48 h
Staphylococcus aureus [11] = experiment: Bacteriostatic activity against Staphylococcus aureus NRRL B-313 after 24 hrs by two-fold serial dilution technique; format: functional; conditions: NRRL B-313, 24 h
Escherichia coli [12] = experiment: Bacteriostatic activity against Escherichia coli NRRL B-210 after 24 hrs by two-fold serial dilution technique; format: functional; conditions: NRRL B-210, 24 h

Row | MIC (Bacillus subtilis [8]) [µg/mL] | MIC (Aspergillus niger [9]) [µg/mL] | MIC (Candida albicans [10]) [µg/mL] | MIC (Staphylococcus aureus [11]) [µg/mL] | MIC (Escherichia coli [12]) [µg/mL] | Compound | Activity (Aspergillus niger [1]) | Activity (Escherichia coli [2]) | Activity (Bacillus subtilis [3]) | Activity (Candida albicans [4]) | Activity (Staphylococcus aureus [5]) | Activity [6] [%] | Activity (MCF7) [%] | Activity [7] [%] | Activity (HepG2) [%]
1 | – | – | – | – | – | O=C1/C(=C\c2ccc(Cl)cc2)SC2(CCCCC2)N1c1ccc(Br)cc1 | inactive | inactive | Active | Active | inactive | – | – | – | –
2 | – | – | – | – | – | Cc1ccc(-c2c3c(nc4nc(C)[nH]c(=O)c24)N(c2ccc(F)cc2)C2(CCCCC2)S3)cc1 | – | – | – | – | – | 65 | 84 | 92.5 | 78.85
3 | – | – | – | – | – | Fc1ccc(N2/C(=N/Nc3ccccc3)CSC23CCCCC3)cc1 | inactive | inactive | inactive | Active | Active | – | – | – | –
4 | 0.12 (≈ 0.277 µM) | 0.3 (≈ 0.694 µM) | 0.2 (≈ 0.462 µM) | 0.125 (≈ 0.289 µM) | – | Cc1ccc(-c2c3c(oc(=O)c2C#N)N(c2ccc(F)cc2)C2(CCCCC2)S3)cc1 | Active | inactive | Active | Active | Active | – | – | – | –
5 | 0.4 (≈ 1.43 µM) | 0.45 (≈ 1.61 µM) | 0.435 (≈ 1.56 µM) | 0.4 (≈ 1.43 µM) | – | N/N=C1\CSC2(CCCCC2)N1c1ccc(F)cc1 | Active | inactive | Active | Active | Active | – | – | – | –
6 | – | – | – | – | – | NS(=O)(=O)c1ccc(/N=C2\CSC3(CCCCC3)N2c2ccc(F)cc2)cc1 | inactive | inactive | Active | Active | Active | – | – | – | –
7 | – | – | – | – | – | Cc1ccc(-c2c(C#N)c(N)nc3c2SC2(CCCCC2)N3c2ccc(F)cc2)cc1 | inactive | inactive | inactive | Active | Active | 54.6 | 55.84 | 85 | 45
8 | 0.175 (≈ 0.422 µM) | 0.3 (≈ 0.724 µM) | 0.45 (≈ 1.09 µM) | 0.175 (≈ 0.422 µM) | – | O=C1/C(=N\Nc2ccc([N+](=O)[O-])cc2)SC2(CCCCC2)N1c1ccc(F)cc1 | inactive | inactive | Active | Active | Active | – | – | – | –
9 | – | – | – | – | – | CC(=O)Nc1nc2c(c(-c3ccc(C)cc3)c1C#N)SC1(CCCCC1)N2c1ccc(F)cc1 | – | – | – | – | – | 49.9 | 65 | 79.8 | 50.63
10 | – | – | – | – | – | Cc1ccc(-c2c3c(nc4[nH]c(=S)nc(NN)c24)N(c2ccc(F)cc2)C2(CCCCC2)S3)cc1 | – | – | – | – | – | 50.2 | 45.62 | 78.2 | 15.65
11 | – | – | – | – | – | O=C1/C(=C\c2ccc(Cl)cc2)SC2(CCCCC2)N1c1ccc(F)cc1 | inactive | Active | inactive | Active | inactive | – | – | – | –
12 | – | – | – | – | – | Cc1ccc(C2NOC3=C2SC2(CCCCC2)N3c2ccc(F)cc2)cc1 (centres undefined) | inactive | inactive | inactive | Active | inactive | 41 | 56.62 | 60.5 | 45.6
13 | – | – | – | – | – | Cc1ccc(/C=C2/SC3(CCCCC3)N(c3ccc(F)cc3)C2=O)cc1 | – | – | – | – | – | 41.1 | 61.2 | 66.8 | 50.32
14 | 0.2 (≈ 0.613 µM) | – | 0.2 (≈ 0.613 µM) | 0.3 (≈ 0.92 µM) | 0.2 (≈ 0.613 µM) | O=C1CSC2(CCCCC2)N1c1ccc(Br)cc1 | Active | Active | Active | Active | Active | – | – | – | –
15 | 0.125 (≈ 0.471 µM) | 0.125 (≈ 0.471 µM) | 0.125 (≈ 0.471 µM) | 0.15 (≈ 0.565 µM) | 0.125 (≈ 0.471 µM) | O=C1CSC2(CCCCC2)N1c1ccc(F)cc1 | Active | Active | Active | Active | Active | – | – | – | –
16 | – | – | – | – | – | Cc1ccc(-c2c3c(nc4[nH]c(=S)[nH]c(=S)c24)N(c2ccc(F)cc2)C2(CCCCC2)S3)cc1 | – | – | – | – | – | 60 | 64.2 | 84.6 | 50.21
